Data reported in patent US9216968B2, “Heterocyclic derivative and pharmaceutical drug” (NIPPON SHINYAKU CO., LTD., priority 2011, dated 2015).
Structures can show the parent of a compound that is named as a salt.

Assays:
A549 cells = experiment: Inhibition of PGE2 production in A549 cell (IL-1β stimulated); assay type: cell-based, human; conditions: Homo sapiens, A549, 24 h, IL-1β 5 ng/well, PGE2 in culture medium
Method: Human A549 cells were seeded onto a 96-well plate at 2×10^4 cells/100 μL per well and allowed to incubate overnight. After removing the culture medium and washing with phosphate buffered saline, the culture medium was replaced by RPMI culture medium with 3% FBS containing a DMSO solution containing test compound or DMSO alone (such that DMSO final concentration would be […] in each). After incubation for 60 minutes, IL-1β (5 ng/well) was added and incubated at 37° C. for 24 hours. Then, PGE2 in the culture medium was measured using HTRF kit (Cisbio International, catalogue #62P2APEC), and PGF2α in the culture medium was measured using EIA kit (Cayman Chemical Company, catalogue #516011). The solution free of test compound was used as positive control, and the solution free of test compound and IL-1β was used as negative control. 100% activity was defined as PGE2 and PGF2α production in the positive control minus PGE2 and PGF2α production in the negative control. IC50 value was calculated by standard method.

human mPGES-1 = human mPGES-1 (Homo sapiens (Human), UniProt O14684); experiment: mPGES-1 inhibiting activity (microsome fractions, PGE2 by HTRF); assay type: biochemical; conditions: microsomes from CHO-K1 cells transfected with human mPGES-1; PGH2 1 μM, 4° C., 60 seconds; read-out: mPGES-1 Inhibition IC50
Method: mPGES-1 microsome fractions were prepared from CHO-K1 cells transiently transfected with plasmid encoding the human mPGES-1cDNA. Microsomes were diluted with potassium phosphate buffer containing reduced glutathione (pH7.4), and DMSO containing test compound or DMSO alone was added (such that DMSO final concentration would be 1% in each) and incubated at 4° C. for 20 minutes. Then, the enzymatic reactions were initiated by the addition of PGH2 substrate (final concentration 1 μM) and incubated at 4° C. for 60 seconds. The reaction was terminated by the addition of a citrate solution (final citrate concentration 50 mM) containing ferric chloride (final concentration 1 mg/mL). PGE2 production in the enzyme reaction aliquot was measured using HTRF kit (Cisbio International, catalogue #62P2APEC). The solution free of test compound was used as positive control, and the solution free of test compound and microsome sample was used as negative control. 100% activity was defined as PGE2 production in the positive control minus PGE2 production in negative control. IC50 value was calculated by standard method.

Sequence of human mPGES-1 (O14684 whole entry): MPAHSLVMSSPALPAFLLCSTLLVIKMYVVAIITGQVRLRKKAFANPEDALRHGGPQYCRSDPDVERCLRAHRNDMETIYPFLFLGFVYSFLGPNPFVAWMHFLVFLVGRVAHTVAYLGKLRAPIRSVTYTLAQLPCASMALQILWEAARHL

SMILES	IC50 (A549 cells) [nM]	IC50 (human mPGES-1) [nM]
CCOCc1ccc(Cl)c(C(=O)Nc2cc(C(=O)Nc3cccc(Cl)c3C)c3nc(COC)[nH]c3c2)c1 [Example 120, 6-({[2-Chloro-5-(ethoxymethyl)phenyl]carbonyl}amino)-N-(3-chloro-2-methylphenyl)-2-(methoxymethyl)-1H-benzimidazole-4-carboxamide]	513	57.5
COCC(C)(C)CNc1nc2c(C(=O)Nc3cccc(Cl)c3C)cc(NC(=O)c3ccccc3C(F)(F)F)cc2[nH]1 [Example 163, N-(3-Chloro-2-methylphenyl)-2-[(3-methoxy-2,2-dimethylpropyl)amino]-6-({[2-(trifluoromethyl)phenyl]carbonyl}amino)-1H-benzimidazole-4-carboxamide hydrochloride]	23.2	5.9
Cc1c(Cl)cccc1NC(=O)c1cc(NC(=O)c2c(Cl)cccc2Cl)cc2[nH]c([C@H]3CCCO3)nc12 [Example 128, N-(3-Chloro-2-methylphenyl)-6-{[(2,6-dichlorophenyl)carbonyl]amino}-2-[(2R)-tetrahydrofuran-2-yl]-1H-benzimidazole-4-carboxamide hydrochloride]	253	1
CSCCNc1nc2c(C(=O)Nc3cccc(Cl)c3C)cc(NC(=O)c3ccccc3C(F)(F)F)cc2[nH]1 [Example 178, N-(3-Chloro-2-methylphenyl)-2-{[2-(methylsulfanyl)ethyl]amino}-6-({[2-(trifluoromethyl)phenyl]carbonyl}amino)-1H-benzimidazole-4-carboxamide hydrochloride]	12.8	1.2
Cc1c(Cl)cccc1NC(=O)c1cc(NC(=O)c2ccccc2C(F)(F)F)cc2[nH]c(NC[C@@H]3CCCO3)nc12 [Example 168, N-(3-Chloro-2-methylphenyl)-2-{[(2S)-tetrahydrofuran-2-ylmethyl]amino}-6-({[2-(trifluoromethyl)phenyl]carbonyl}amino)-1H-benzimidazole-4-carboxamide hydrochloride]	23.9	3.2
COCc1nc2c(C(=O)NCc3ccccc3C(F)(F)F)cc(NC(=O)c3ccccc3C(F)(F)F)cc2[nH]1 [Example 21, 2-(Methoxymethyl)-N-[2-(trifluoromethyl)benzyl]-6-({[2-(trifluoromethyl)phenyl]carbonyl}amino)-1H-benzimidazole-4-carboxamide]	69.4	8.3
COCc1nc2c(C(=O)Nc3cccc(Cl)c3C)cc(NC(=O)c3c(F)cccc3Cl)cc2[nH]1 [Example 92, 6-{[(2-Chloro-6-fluorophenyl)carbonyl]amino}-N-(3-chloro-2-methylphenyl)-2-(methoxymethyl)-1H-benzimidazole-4-carboxamide hydrochloride]	32.2	6.7
Cc1c(Cl)cccc1NC(=O)c1cc(NC(=O)c2ccccc2C(F)(F)F)cc2[nH]c(N(C)C)nc12 [Example 145, N-(3-Chloro-2-methylphenyl)-2-(dimethylamino)-6-({[2-(trifluoromethyl)phenyl]carbonyl}amino)-1H-benzimidazole-4-carboxamide hydrochloride]	13	1.6
Cc1ccc(NC(=O)c2cc(NC(=O)c3ccccc3C(F)(F)F)cc3[nH]c(C(C)(C)C)nc23)cc1Cl [Example 86, 2-tert-Butyl-N-(3-chloro-4-methylphenyl)-6-({[2-(trifluoromethyl)phenyl]carbonyl}amino)-1H-benzimidazole-4-carboxamide hydrochloride]	5.1	1
COCc1nc2c(C(=O)NCc3cccc(Cl)c3C)cc(NC(=O)c3ccccc3C(F)(F)F)cc2[nH]1 [Example 39, N-(3-Chloro-2-methylbenzyl)-2-(methoxymethyl)-6-({[2-(trifluoromethyl)phenyl]carbonyl}amino)-1H-benzimidazole-4-carboxamide hydrochloride]	237	10.4
Cc1c(Cl)cccc1NC(=O)c1cc(NC(=O)c2ccccc2C(F)(F)F)cc2c1ncn2C [Example 46, N-(3-Chloro-2-methylphenyl)-1-methyl-6-({[2-(trifluoromethyl)phenyl]carbonyl}amino)-1H-benzimidazole-4-carboxamide]	231	26
COCc1nc2c(C(=O)Nc3nc4ccc(Cl)cc4o3)cc(NC(=O)c3ccccc3C(F)(F)F)cc2[nH]1 [Example 233, N-(6-Chloro-1,3-benzoxazol-2-yl)-2-(methoxymethyl)-6-({[2-(trifluoromethyl)phenyl]carbonyl}amino)-1H-benzimidazole-4-carboxamide hydrochloride]	195	2.5
Cc1c(Cl)cccc1NC(=O)c1cc(NC(=O)c2ccccc2C(F)(F)F)cc2[nH]c(NCC(=O)O)nc12 [Example 161, N-{4-[(3-Chloro-2-methylphenyl)carbamoyl]-6-({[2-(trifluoromethyl)phenyl]carbonyl}amino)-1H-benzimidazol-2-yl}glycine hydrochloride]	> 10000	3.8
COCc1nc2c(C(=O)Nc3cccc(C#N)c3C)cc(NC(=O)c3ccccc3C(F)(F)F)cc2[nH]1 [Example 41, N-(3-Cyano-2-methylphenyl)-2-(methoxymethyl)-6-({[2-(trifluoromethyl)phenyl]carbonyl}amino)-1H-benzimidazole-4-carboxamide]	145	52.5
COCc1nc2c(C(=O)Nc3cccc(Cl)c3C)cc(NC(=O)c3ncccc3F)cc2[nH]1 [Example 244, N-(3-Chloro-2-methylphenyl)-6-{[(3-fluoropyridin-2-yl)carbonyl]amino}-2-(methoxymethyl)-1H-benzimidazole-4-carboxamide hydrochloride]	104	56.2
Cc1c(Cl)cccc1NC(=O)c1cc(NC(=O)c2cc(Cl)ccc2Cl)cc2[nH]c(C3CC3)nc12 [Example 208, N-(3-Chloro-2-methylphenyl)-2-cyclopropyl-6-{[(2,5-dichlorophenyl)carbonyl]amino}-1H-benzimidazole-4-carboxamide hydrochloride]	13	0.7
Cc1c(Cl)cccc1NC(=O)c1cc(NC(=O)c2ccccc2C(F)(F)F)cc2[nH]c(N3CC(O)C3)nc12 [Example 148, N-(3-Chloro-2-methylphenyl)-2-(3-hydroxyazetidin-1-yl)-6-({[2-(trifluoromethyl)phenyl]carbonyl}amino)-1H-benzimidazole-4-carboxamide hydrochloride]	324	1.9
O=C(Nc1cc(C(=O)NCc2ccccc2C(F)(F)F)c2nc[nH]c2c1)c1ccccc1C(F)(F)F [Example 1, N-[2-(Trifluoromethyl)benzyl]-6-({[2-(trifluoromethyl)phenyl]carbonyl}amino)-1H-benzimidazol-4-carboxamide]	88.9	–
COCc1nc2c(C(=O)Nc3nc4ccccc4s3)cc(NC(=O)c3ccccc3C(F)(F)F)cc2[nH]1 [Example 225, N-(1,3-Benzothiazol-2-yl)-2-(methoxymethyl)-6-({[2-(trifluoromethyl)phenyl]carbonyl}amino)-1H-benzimidazole-4-carboxamide hydrochloride]	–	15.6
